Here are results for one substance from US20230241093A1, “TARGETING ADISPSIN FOR NONALCOHOLIC STEATOHEPATITIS (NASH)- INDUCED LIVER FIBROSIS” (The Trustees of Columbia University in the City of New York, priority 2020, published 2023).

The subject of the assay is hepatic stellate cells (HSC). Description: Gene expression in hepatic stellate cells after treatment with recombinant C3a. Conditions: recombinant C3a vs control (vehicle alone), FIG. 3B. The assay is classed as cell-based. As for the experimental part:
FIG. 3. Adipsin/C3a effects on liver fibrosis. A. Complement C3 cleavage products as assessed by Western blot in conditioned medium from hepatocytes with or without Adipsin expression. B. Gene expression in hepatic stellate cells (HSC) after treatment with vehicle or recombinant C3a.
The effects of Adipsin/C3a on liver fibrosis was analyzed.

Consider “recombinant C3a: recombinant complement C3 cleavage product C3a, used to treat hepatic stellate cells”, for which the “Acta2 gene expression in hepatic stellate cells” value is “dose dependent increase” and the “Collal gene expression in hepatic stellate cells” value is “dose dependent increase”.
